Patent US7423020B2, “Treatment of mood disorders by administration of SMR1” (Institut Pasteur, priority 2001, dated 2008)
Where a SMILES comes first, the peptide text is derived from it.

Columns and labels:
male Wistar/AF EOPS rats [1] = experiment: Behavioral despair test (forced swimming); assay type: in vivo, rat
Protocol: Forty male Wistar/AF EOPS rats (Iffa-Credo Breeding Centre, 69-St-Germain sur l'Arbresle, France), weighing 300 to 320 g, were used. On arrival, the rats were labelled and distributed randomly in pairs into type F polycarbonate cages (48×27×20 cm, U.A.R., 91-Epinay-Sur-Orge, France). The animals were stabled in an air-conditioned animal house, at a temperature of 22-24° C. The rats were given food (M25 croquettes, Ets Pietrement, 77-Provins, France) and drink ad libitum and were subjected to a 12-hour light-darkness cycle.
After one week of familiarization with the laboratory conditions, the rats were weighed and distributed randomly into 3 treatment groups (n=12). The rats of the different groups will all be handled in the same way and under the same conditions.
The behavioral despair test takes place over two sessions: • a 15-minute test session; • a 5-minute retest session, performed 24 hours later.
During the test session, the rat was subjected to forced swimming in a Plexiglas cylinder (20 cm in diameter and 50 cm in height, containing 25 cm of water at 25° C.) and its behavior was recorded over 15 minutes. At the end of the test, the rat was removed from the water, dried gently, treated and then returned to its dwelling cage.
During the retest, 24 hours later, the rat was again placed in the water and its behavior was recorded over 5 minutes.
The recorded variables are the period of immobility during the first 5 minutes of both the test and the retest.
The peptide FG-005 (SMR1-QHNPR) (SEQ ID NO: 1) was suspended at a rate of 500 μg per 5 ml of 0.01N acetic acid, and then diluted with PBS to be administered at doses of 50 and 100 μg/kg via the i.v. route into the dorsal caudal vein of the rat, immediately after the test and 300 and 5 minutes before the retest the following day.
A bilateral probability paired t test was used to compare the two periods of immobility of the test with those of the retest in each of the groups. The results are expressed as an average ±standard error of mean (SEM)(FIG. 4). The statistical and graphical processing was performed using Statview5 and DeltaGraph® Pro 3.5 software.

male Wistar/AF EOPS rats [2] = experiment: Behavioral despair test (forced swimming); assay type: in vivo, rat; design: change of period of immobility, retest compared with test: dose or concentration left out as unconfirmed; details: for Immobility period, Retest / Immobility period, Test: first 5 minutes, n = 10; for Immobility period, Test: test session before any treatment

For `N=C(N)NCCC[C@H](NC(=O)[C@@H]1CCCN1C(=O)[C@H](CC(N)=O)NC(=O)[C@H](Cc1c[nH]cn1)NC(=O)[C@@H](N)CCC(N)=O)C(=O)O` [SMR1-QHNPR, QHNPR] (H-QHNPR-OH; N-terminus and C-terminus assumed), the “overall effect in the behavioral despair test” value (male Wistar/AF EOPS rats [1]; FG-005 50 and 100 μg/kg i.v., 8-OH-DPAT as reference substance) was “antidepressant effect”, the “change of period of immobility, retest compared with test” value (from here on “change of period of immobility, retest”) (male Wistar/AF EOPS rats [1]; dose of 50 μg/kg) was “increase their period of immobility during the retest” and the “change of period of immobility, retest” value (male Wistar/AF EOPS rats [1]; doses of 50 and 100 μg/kg, i.v., immediately after the test and 300 and 5 minutes before the retest) was “do not increase their periods of immobility during the retest”. The “Immobility period, Retest” value (male Wistar/AF EOPS rats [2]; 50 μg/kg i.v., 1440, 300, 5 min before the retest) was 141.20 ± 21.28, the “Immobility period, Retest” value (male Wistar/AF EOPS rats [2]; 100 μg/kg i.v., 1440, 300, 5 min before the retest) was 121.50 ± 17.47 and the “Immobility period, Test” value (male Wistar/AF EOPS rats [2]; FG-50 group, 50 μg/kg i.v.) was 119.00 ± 13.79. The “Immobility period, Test” value (male Wistar/AF EOPS rats [2]; FG-100 group, 100 μg/kg i.v.) was 138.30 ± 11.03 and the “change of period of immobility, retest” value (male Wistar/AF EOPS rats [2]; dose of 100) was “reduce it”.
